Columns and labels:
NCI H929 cells = assay: JC1 BH3 profiling, NCI H929; assay type: cell-based; details: Figure 4A
K562 cells = assay: JC1 BH3 profiling, K562; assay type: cell-based; details: Figure 4B

Compound	Mitochondrial depolarization in NCI H929 (BH3 profiling) (NCI H929 cells)	Mitochondrial depolarization in K562 (BH3 profiling) (K562 cells)
CSCC[C@H](NC(=O)[C@H](CCCNC(=N)N)NC(=O)[C@H](CCCNC(=N)N)NC(=O)[C@H](CC(C)C)NC(=O)[C@H](CCC(=O)O)NC(=O)[C@H](CCCNC(=N)N)NC(=O)CNC(=O)[C@H](Cc1ccc(O)cc1)NC(=O)[C@H](CCCNC(=N)N)NC(=O)[C@H](CCC(N)=O)NC(=O)[C@H](C)NC(=O)[C@H](C)NC(=O)[C@H](Cc1c[nH]c2ccccc12)NC(=O)[C@H](CC(C)C)NC(C)=O)C(=O)N[C@@H](CO)C(=O)N[C@@H](CC(=O)O)C(=O)N[C@@H](CCC(=O)O)C(=O)N[C@@H](Cc1ccccc1)C(=O)N[C@@H](CCC(=O)O)C(=O)NCC(=O)N[C@@H](CO)C(=O)N[C@@H](Cc1ccccc1)C(=O)N[C@@H](CCCCN)C(=O)NCC(=O)N[C@@H](CC(C)C)C(N)=O [Bad]	not affected	–
CC[C@H](C)[C@H](NC(=O)[C@H](CCC(=O)O)NC(=O)[C@H](CC(=O)O)NC(=O)CNC(=O)[C@H](CC(C)C)NC(=O)[C@H](CCCNC(=N)N)NC(=O)[C@H](CCCNC(=N)N)NC(=O)[C@H](CC(C)C)NC(=O)CNC(=O)[C@H](CCC(N)=O)NC(=O)[C@@H](NC(=O)[C@H](CCSC)NC(=O)[C@H](Cc1c[nH]c2ccccc12)NC(=O)[C@@H](NC(=O)[C@H](CCC(=O)O)NC(=O)[C@@H]1CCCN1C(=O)[C@H](CCCNC(=N)N)NC(C)=O)[C@@H](C)CC)[C@@H](C)O)C(=O)N[C@@H](CC(N)=O)C(=O)N[C@@H](C)C(=O)N[C@@H](Cc1ccc(O)cc1)C(=O)N[C@@H](Cc1ccc(O)cc1)C(=O)N[C@@H](C)C(=O)N[C@@H](CCCNC(=N)N)C(N)=O [MS-1]	mitochondrial depolarization was observed	insensitive
Ac-WSSAAQLTAARLKALGDELHQ-NH2 [HRK]	not affected	–
